According to patent US11554171B2, “Compounds and methods for the targeted degradation of bromodomain-containing proteins” (Arvinas Operations, Inc., priority 2015, dated 2023):

System: c-myc in 22RV-1 cells
Experiment: Human c-myc ELISA assay
Type: cell-based
Details: Homo sapiens; for Emax: 22Rv1, 18 h, read-out: Degradation of BRD4: Maximum inhibition (%) c-Myc ELISA in 22RV1 cells; for DC50: 22Rv1, read-out: Degradation of BRD4: DC50 (uM) c-Myc ELISA in 22RV1 cells
Summary of the method: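 c-myc levels measured by ELISA in RIPA lysates of 22RV-1 cells, calibrated with a 333-0 pg/ml standard curve. Lysates came from cells exposed for 18 h to an 8-point, 1:3 dose series starting at 300 nM or 1 μM final in 0.1% DMSO. Suppression potency given as DC50.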

| DC50 [µM] | Compound | Emax [%] |
| --- | --- | --- |
| < 0.01 | Cc1ncsc1-c1ccc(CNC(=O)[C@@H]2C[C@@H](O)CN2C(=O)[C@@H](NC(=O)COCCCOCCNC(=O)C[C@@H]2N=C(c3ccc(Cl)cc3)c3c(sc(C)c3C)-n3c(C)nnc32)C(C)(C)C)cc1 [Example 49, (2S,4R)-1-[(2S)-2-{2-[3-(2-{2-[(9S)-7-(4-chlorophenyl)-4,5,13-trimethyl-3-thia-1,8,11,12-tetraazatricyclo[8.3.0.0^2,^6]trdeca-2(6),4,7,10,12-pentaen-9-yl]acetamido}ethoxy)propoxy]acetamido}-3,3-dimethylbutanoyl]-4-hydroxy-N-{[4-(4-methyl-1,3-thiazol-5-yl)phenyl]methyl}pyrrolidine-2-carboxamide] | 99 |
| 0.01 to 0.1 | Cc1ncsc1-c1ccc(CNC(=O)[C@@H]2C[C@@H](O)CN2C(=O)[C@@H](NC(=O)COCC#CC#CCOc2ccc([C@@H](C)NC(=O)C[C@@H]3N=C(c4ccc(Cl)cc4)c4c(sc(C)c4C)-n4c(C)nnc43)cc2)C(C)(C)C)cc1 [Example 43, (2S,4R)-1-[(2S)-2-{2-[(6-{4-[(1R)-1-{2-[(9S)-7-(4-chlorophenyl)-4,5,13-trimethyl-3-thia-1,8,11,12-tetraazatricyclo[8.3.0.0^2,^6]trideca-2(6),4,7,10,12-pentaen-9-yl]acetamido}ethyl]phenoxy}hexa-2,4-diyn-1-yl)oxy]acetamido}-3,3-dimethylbutanoyl]-4-hydroxy-N-{[4-(4-methyl-1,3-thiazol-5-yl)phenyl]methyl}pyrrolidine-2-carboxamide] | 100 |
| 0.01 to 0.1 | Cc1ncsc1-c1ccc([C@H](C)NC(=O)[C@@H]2C[C@@H](O)CN2C(=O)[C@@H](NC(=O)COCCOCCCOc2ccc([C@@H](C)NC(=O)C[C@@H]3N=C(c4ccc(Cl)cc4)c4c(sc(C)c4C)-n4c(C)nnc43)cc2)C(C)(C)C)cc1 [Example 30] | 96 |
| < 0.01 | Cc1ncoc1-c1ccc([C@H](C)NC(=O)[C@@H]2C[C@@H](O)CN2C(=O)[C@@H](NC(=O)COc2ccc(O[C@H]3C[C@@H](NC(=O)C[C@@H]4N=C(c5ccc(Cl)cc5)c5c(sc(C)c5C)-n5c(C)nnc54)C3)nc2)C(C)(C)C)cc1 [Example 278] | 95.4 |
| > 1 | Cc1ncsc1-c1ccc([C@H](C)NC(=O)[C@@H]2C[C@@H](O)CN2C(=O)[C@@H](C(C)C)n2cc(-c3ccnc(N4CC(NC(=O)C[C@@H]5N=C(c6ccc(Cl)cc6)c6c(sc(C)c6C)-n6c(C)nnc65)C4)c3)cn2)cc1 [Example 247] | 24.1 |
| < 0.01 | Cc1ncsc1-c1ccc([C@H](C)NC(=O)[C@@H]2C[C@@H](O)CN2C(=O)[C@H](C(C)C)n2cc(-c3ccnc(N4CC[C@@H](NC(=O)C[C@@H]5N=C(c6ccc(Cl)cc6)c6c(sc(C)c6C)-n6c(C)nnc65)C4)c3)cn2)cc1 [Example 266] | 97 |
| < 0.01 | Cc1ncsc1-c1ccc([C@H](C)NC(=O)[C@@H]2C[C@@H](O)CN2C(=O)[C@@H](NC(=O)CCc2cc(OCCNC(=O)C[C@@H]3N=C(c4ccc(Cl)cc4)c4c(sc(C)c4C)-n4c(C)nnc43)ccc2F)C(C)(C)C)cc1 [Example 142, (2S,4R)-1-[(2S)-2-{3-[5-(2-{2-[(9S)-7-(4-chlorophenyl)-4,5,13-trimethyl-3-thia-1,8,11,12-tetraazatricyclo[8.3.0.0^2,^6]trideca-2(6),4,7,10,12-pentaen-9-yl]acetamido}ethoxy)-2-fluorophenyl]propanamido}-3,3-dimethylbutanoyl]-4-hydroxy-N-[(1S)-1-[4-(4-methyl-1,3-thiazol-5-yl)phenyl]ethyl]pyrrolidine-2-carboxamide] | 98 |
| > 1 | Cc1ncsc1-c1ccc([C@H](C)NC(=O)[C@@H]2C[C@@H](O)CN2C(=O)[C@@H](C(C)C)n2cc(-c3ccnc(N4CC[C@H](NC(=O)C[C@@H]5N=C(c6ccc(Cl)cc6)c6c(sc(C)c6C)-n6c(C)nnc65)C4)c3)cn2)cc1 [Example 263] | 23.5 |
| > 1 | Cc1ncsc1-c1ccc([C@H](C)NC(=O)[C@@H]2C[C@H](O)CN2C(=O)[C@@H](NC(=O)COCCCOCCNC(=O)C[C@@H]2N=C(c3ccc(Cl)cc3)c3c(sc(C)c3C)-n3c(C)nnc32)C(C)(C)C)cc1 [Example 71] | 11.2 |
| 0.01 to 0.1 | Cc1ncsc1-c1ccc(CNC(=O)[C@@H]2C[C@@H](O)CN2C(=O)[C@@H](NC(=O)COCCOCCOCCCCOc2ccc(NC(=O)C[C@@H]3N=C(c4ccc(Cl)cc4)c4c(sc(C)c4C)-n4c(C)nnc43)cc2)C(C)(C)C)cc1 [Example 14] | 100 |
| > 1 | Cc1sc2c(c1C)C(c1ccc(Cl)cc1)=N[C@@H](CC(=O)N[C@H]1C[C@@H](Oc3cc(-c4cnn([C@H](C(=O)N5C[C@H](O)C[C@H]5C(=O)N[C@@H](C)c5ccc(-c6nccn6C)cc5)C(C)C)c4)ccn3)C1)c1nnc(C)n1-2 [Example 293] | 9.5 |
| < 0.01 | Cc1ncsc1-c1ccc(CNC(=O)[C@@H]2C[C@@H](O)CN2C(=O)[C@@H](c2cc(OCCCCCNC(=O)C[C@@H]3N=C(c4ccc(Cl)cc4)c4c(sc(C)c4C)-n4c(C)nnc43)no2)C(C)C)cc1 [Example 121] | 98.5 |
| < 0.01 | Cc1ncsc1-c1ccc([C@H](C)NC(=O)[C@@H]2C[C@@H](O)CN2C(=O)[C@@H](NC(=O)COc2ccc(OCCNC(=O)C[C@@H]3N=C(c4ccc(Cl)cc4)c4c(sc(C)c4C)-n4c(C)nnc43)nc2)C(C)(C)C)cc1 [Example 128, (2S,4R)-1-[(2S)-2-(2-{[6-(2-{2-[(9S)-7-(4-chlorophenyl)-4,5,13-trimethyl-3-thia-1,8,11,12-tetraazatricyclo[8.3.0.0^2,^6]trideca-2(6),4,7,10,12-pentaen-9-yl]acetamido}ethoxy)pyridin-3-yl]oxy}acetamido)-3,3-dimethylbutanoyl]-4-hydroxy-N-[(1S)-1-[4-(4-methyl-1,3-thiazol-5-yl)phenyl]ethyl]pyrrolidine-2-carboxamide] | 100 |
| < 0.01 | Cc1ncsc1-c1ccc([C@H](C)NC(=O)[C@@H]2C[C@@H](O)CN2C(=O)[C@@H](NC(=O)/C=C/c2cccc(OCCNC(=O)C[C@@H]3N=C(c4ccc(Cl)cc4)c4c(sc(C)c4C)-n4c(C)nnc43)c2)C(C)(C)C)cc1 [Example 122] | 100 |
| < 0.01 | Cc1ncsc1-c1ccc(CNC(=O)[C@@H]2C[C@@H](O)CN2C(=O)[C@@H](NC(=O)COc2ccc(O[C@H]3C[C@H](NC(=O)C[C@@H]4N=C(c5ccc(Cl)cc5)c5c(sc(C)c5C)-n5c(C)nnc54)C3)nc2)C(C)(C)C)cc1 [Example 140] | 98 |
| < 0.01 | Cc1ncsc1-c1ccc([C@H](C)NC(=O)[C@@H]2C[C@@H](O)CN2C(=O)[C@@H](NC(=O)c2cc3ccc(O[C@H](C)CNC(=O)C[C@@H]4N=C(c5ccc(Cl)cc5)c5c(sc(C)c5C)-n5c(C)nnc54)cc3o2)C(C)(C)C)cc1 [Example 211, (2S,4R)-1-[(2S)-2-[(6-{[(2R)-1-{2-[(9S)-7-(4-chlorophenyl)-4,5,13-trimethyl-3-thia-1,8,11,12-tetraazatricyclo[8.3.0.0^2,^6]trideca-2(6),4,7,10,12-pentaen-9-yl]acetamido}propan-2-yl]oxy}-1-benzofuran-2-yl)formamido]-3,3-dimethylbutanoyl]-4-hydroxy-N-[(1S)-1-[4-(4-methyl-1,3-thiazol-5-yl)phenyl]ethyl]pyrrolidine-2-carboxamide] | 99 |
| 0.1 to 1 | Cc1ncsc1-c1ccc(CNC(=O)[C@@H]2C[C@@H](O)CN2C(=O)[C@@H](NC(=O)c2cn3ccc(OCCCNC(=O)C[C@@H]4N=C(c5ccc(Cl)cc5)c5c(sc(C)c5C)-n5c(C)nnc54)cc3n2)C(C)(C)C)cc1 [Example 99] | 67 |

| Compound | DC50 [µM] | Emax [%] |
| --- | --- | --- |
| Cc1ncsc1-c1ccc(CNC(=O)[C@@H]2C[C@@H](O)CN2C(=O)[C@@H](C(C)C)n2cc(-c3ccnc(O[C@H]4C[C@H](NC(=O)C[C@@H]5N=C(c6ccc(Cl)cc6)c6c(sc(C)c6C)-n6c(C)nnc65)C4)c3)cn2)cc1 [Example 225, (2S,4R)-4-hydroxy-N-{[4-(4-methyl-1,3-thiazol-5-yl)phenyl]methyl}-1-[(2R)-3-methyl-2-(4-{2-[(1,3trans)-3-{2-[(9 S)-7-(4-chlorophenyl)-4,5,13-trimethyl-3-thia-1,8,11, 12-tetraazatricyclo[8.3.0.0^2,^6]trideca-2(6),4,7,10,12-pentaen-9-yl]acetamido}cyclobutoxy]pyridin-4-yl}-1H-pyrazol-1-yl)butanoyl]pyrrolidine-2-carboxamide] | > 1 | 50.4 |
| Cc1ncsc1-c1ccc([C@H](C)NC(=O)[C@@H]2C[C@@H](O)CN2C(=O)[C@@H](NC(=O)CN2CCC(O[C@H]3C[C@H](NC(=O)c4ccc5c6ncc(-c7c(C)noc7C)cc6n([C@H](c6ccccc6)C6CCOCC6)c5c4)C3)CC2)C(C)(C)C)cc1 [Example 365, (2S,4R)-1-[(2S)-3,3-dimethyl-2-(2-{4-[(1,3-trans)-3-[3-(dimethyl-1,2-oxazol-4-yl)-5-[(S)-oxan-4-yl(phenyl)methyl]-5H-pyrido[3,2-b]indole-7-amido]cyclobutoxy]piperidin-1-yl}acetamido)butanoyl]-4-hydroxy-N-[(1S)-1-[4-(4-methyl-1,3-thiazol-5-yl)phenyl]ethyl]pyrrolidine-2-carboxamide] | < 0.01 | 100 |
